≈ marks a conversion by molar mass, not a printed value.
What was measured:
Kallikrein-14 = biological target: T1, Kallikrein-14 (Homo sapiens, UniProt Q9P0G3); assay: Inhibition of recombinant C-terminal 10His-tagged human KLK14 (Gln19 to Met248 residues) expressed in mouse NS0 cells using BOC-VPR-AMC as substrate after 40 mins by fluorescence intensity assay
T1 sequence (Q9P0G3 whole entry): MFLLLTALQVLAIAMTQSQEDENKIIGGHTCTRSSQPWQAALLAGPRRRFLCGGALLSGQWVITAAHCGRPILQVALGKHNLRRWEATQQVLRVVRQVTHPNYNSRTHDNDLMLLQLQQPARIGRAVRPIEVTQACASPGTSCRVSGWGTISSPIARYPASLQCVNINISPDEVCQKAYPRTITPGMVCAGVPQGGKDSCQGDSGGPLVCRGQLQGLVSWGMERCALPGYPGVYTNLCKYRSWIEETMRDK

Kallikrein-5 = biological target: T2, Kallikrein-5 (Homo sapiens, UniProt Q9Y337); assay: Inhibition of recombinant 6His-Q-FLAG tagged human KLK5 expressed in baculovirus infected Sf9 insect cells using (Tos-Gly-Pro-Arg)2[R110].2TFA as substrate measured at 30 secs interval for 5 mins by fluorescence intensity assay; conditions: read-out: pIC50 (converted)
T2 sequence (Q9Y337 whole entry): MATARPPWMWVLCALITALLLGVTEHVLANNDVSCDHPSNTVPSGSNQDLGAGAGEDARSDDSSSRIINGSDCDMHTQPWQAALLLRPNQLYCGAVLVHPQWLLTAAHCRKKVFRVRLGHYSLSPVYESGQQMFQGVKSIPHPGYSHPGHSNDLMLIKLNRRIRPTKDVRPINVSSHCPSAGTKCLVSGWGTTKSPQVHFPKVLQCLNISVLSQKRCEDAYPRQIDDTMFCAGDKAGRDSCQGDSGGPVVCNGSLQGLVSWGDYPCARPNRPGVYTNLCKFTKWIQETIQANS

Kallikrein-1 = Kallikrein-1 (Homo sapiens, UniProt P06870); assay: Inhibition of recombinant bovine enterokinase activated N-terminal His-tagged recombinant human KLK1 (19 to 262 residues) expressed in baculovirus infected Sf9 insect cells using 3',6'-bis(prolylphenylalanylarginylamino)3H-spiro(2-benzofuran-1,9'-xanthen)-3-one;TFA as substrate measured at 30 secs interval for 5 mins by fluorescence intensity assay
Plasma kallikrein = Plasma kallikrein (Homo sapiens, UniProt P03952); assay: Inhibition of recombinant C-terminal 6-His tagged human KLKB1 (Gly20 to Ala638 residues) expressed in mouse NS0 cells using P-F-R-AMC as substrate after 40 mins by fluorescence intensity assay
Kallikrein-8 = biological target: T3, Kallikrein-8 (Homo sapiens, UniProt O60259); assay: Inhibition of recombinant C-terminal 10-His tagged human KLK8 (Gln29 to Gly260 residues) expressed in mouse NS0 cells using BOC-VPR-AMC as substrate after 40 mins by fluorescence intensity assay
T3 sequence (O60259 whole entry): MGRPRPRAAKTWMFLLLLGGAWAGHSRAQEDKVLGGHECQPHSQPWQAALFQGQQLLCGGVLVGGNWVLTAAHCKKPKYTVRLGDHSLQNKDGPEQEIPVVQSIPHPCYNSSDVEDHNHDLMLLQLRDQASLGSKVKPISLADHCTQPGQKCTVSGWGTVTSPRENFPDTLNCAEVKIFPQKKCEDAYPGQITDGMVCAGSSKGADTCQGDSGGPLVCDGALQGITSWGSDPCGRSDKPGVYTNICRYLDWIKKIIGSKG

Coagulation factor X = Coagulation factor X (Homo sapiens, UniProt P00742); assay: Inhibition of recombinant C-terminal 10His-tagged human coagulation factor 10a (Leu24 to Lys488 residues) expressed in baculovirus infected Sf9 insect cells using Mca-RPKPVE-Nval-WRK(Dnp)-NH2 as substrate after 40 mins by fluorescence intensity assay
Neutrophil elastase = biological target: T4, Neutrophil elastase (Homo sapiens, UniProt P08246); assay: Inhibition of human neutrophil elastase using MeOSuc-AAPV-AMC as substrate after 40 mins by fluorescence intensity assay
T4 sequence (P08246 whole entry): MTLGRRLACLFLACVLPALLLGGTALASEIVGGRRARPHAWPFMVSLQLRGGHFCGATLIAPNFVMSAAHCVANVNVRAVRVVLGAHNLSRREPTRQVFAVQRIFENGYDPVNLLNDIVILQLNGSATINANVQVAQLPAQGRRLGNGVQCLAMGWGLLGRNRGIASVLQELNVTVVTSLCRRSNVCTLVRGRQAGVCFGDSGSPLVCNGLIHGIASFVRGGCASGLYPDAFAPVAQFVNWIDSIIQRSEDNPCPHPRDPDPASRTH

[1] = biological target: Urokinase-type plasminogen activator (Homo sapiens, UniProt P00749); assay: Inhibition of recombinant C-terminal 10His-tagged human urokinase (Met1 to Leu431 residues) expressed in mouse NS0 cells using Z-GGR-AMC as substrate after 40 mins by fluorescence intensity assay
Homo sapiens [2] = species on record: Homo sapiens; assay: Selectivity index, ratio of compound effect for inhibition of recombinant C-terminal 6-His tagged human KLKB1 (Gly20 to Ala638 residues) expressed in mouse NS0 cells to compound effect for inhibition of recombinant 6His-Q-FLAG tagged human KLK5 expressed in baculovirus infected insect Sf9 cells
Homo sapiens [3] = species on record: Homo sapiens; assay: Selectivity index, ratio of compound effect for inhibition of recombinant human N-terminal met-His6-tagged matriptase catalytic domain (Gly596 to Val855 residues) expressed in Escherichia coli to compound effect for inhibition of recombinant 6His-Q-FLAG tagged human KLK5 expressed in baculovirus infected insect Sf9 cells
Homo sapiens [4] = species on record: Homo sapiens; assay: Selectivity index, ratio of compound effect for inhibition of human neutrophil elastase to compound effect for inhibition of recombinant 6His-Q-FLAG tagged human KLK5 expressed in baculovirus infected insect Sf9 cells
Homo sapiens [5] = species on record: Homo sapiens; assay: Selectivity index, ratio of compound effect for inhibition of recombinant C-terminal 10-His tagged human urokinase (Met1 to Leu431 residues) expressed in mouse NS0 cells to compound effect for inhibition of recombinant 6His-Q-FLAG tagged human KLK5 expressed in baculovirus infected insect Sf9 cells
Homo sapiens [6] = species on record: Homo sapiens; assay: Selectivity index, ratio of compound effect for inhibition of recombinant C-terminal 10-His tagged human KLK8 (Gln29 to Gly260 residues) expressed in mouse NS0 cells to compound effect for inhibition of recombinant 6His-Q-FLAG tagged human KLK5 expressed in baculovirus infected insect Sf9 cells
Keratinocyte [7] = assay: Induction of irritation in human epidermal keratinocytes assessed as effect on cell viability over 24 hrs; type: cell-based
[8] = Solubility of the compound in pH 4 Britton-Robinson buffer at 24 hrs; type: physicochemical; conditions: Britton-Robinson buffer, pH 4
[9] = Solubility of the compound in pH 6 Britton-Robinson buffer at 24 hrs; type: physicochemical; conditions: Britton-Robinson buffer, pH 6
[10] = Solubility of the compound in pH 8 Britton-Robinson buffer at 24 hrs; type: physicochemical
[11] = Half life in pH 4 to 8 buffer at 0.05 mg/ml over 24 hrs; type: physicochemical
[12] = Half life in pH 6 buffer at 0.05 mg/ml under H2O2-induced oxidative condition over 24 hrs; type: physicochemical; conditions: buffer with H2O2, pH 6
[13] = Half life in pH 8 buffer at 0.05 mg/ml under H2O2-induced oxidative condition over 24 hrs; type: physicochemical; conditions: buffer with H2O2, pH 8
[14] = Absorption property in methanol assessed as molar extinction co-efficient by UV-spectra analysis; type: physicochemical
Keratinocyte [15] = assay: Induction of irritation in human epidermal keratinocytes assessed as effect on IL1alpha levels over 24 hrs; type: cell-based

IC50 (Kallikrein-14): 3.98 µM
IC50 (Kallikrein-5): 0.0794 µM
IC50 (Kallikrein-1): 63.1 µM
IC50 (Plasma kallikrein): 6.31 µM
IC50 (Kallikrein-8): 0.794 µM
IC50 (Coagulation factor X): > 100 µM
IC50 (Neutrophil elastase): > 100 µM
IC50 [1]: > 100 µM
solubility at 24 h [8]: 1000 µg/mL (≈ 2510 µM)
solubility at 24 h [9]: 290 µg/mL (≈ 728 µM)
solubility at 24 h [10]: 180 µg/mL (≈ 452 µM)
half-life at 0.05 mg/ml [11]: > 1000 h
half-life at 0.05 mg/ml [12]: 27.8 h
half-life at 0.05 mg/ml [13]: 10.1 h
Activity [14]: > 1000 a.u.L/mol.cm
SMILES: N=C(N)c1ccc(NCc2nc(-c3ccccc3)c[nH]2)cc1OCc1cccnc1
Selectivity Index (Homo sapiens [2]): > 100
Selectivity Index (Homo sapiens [3]): > 100
Selectivity Index (Homo sapiens [4]): > 100
Selectivity Index (Homo sapiens [5]): > 100
Selectivity Index (Homo sapiens [6]): 10
Activity (Keratinocyte [7]): Non-Toxic
Activity (Keratinocyte [15]): Non-Toxic

Source: ChEMBL document CHEMBL4387717, “Structure guided drug design to develop kallikrein 5 inhibitors to treat Netherton syndrome” (Bioorg Med Chem Lett, 2019)
